Reference: US20240116845A1, “INDENE COMPOUNDS, PHARMACEUTICAL COMPOSITIONS THEREOF, AND THEIR THERAPEUTIC APPLICATIONS” (NucMito Pharmaceuticals Co., Ltd., priority 2021, published 2024)

What was measured:
Format in all cases: cell-based
[1] = tested on: alpha-smooth muscle actin (α-SMA); test: Inhibition of TGF-β induced expression of alpha-smooth muscle actin in CFSC cells (western blot); details: compound at 10 μM, TGF-β (10 ng/mL), 24 hours
How it was run: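 Read-out is percent decrease in α-SMA western-blot band intensity, β-actin also probed, relative to TGF-β-only cells. CFSC cells were co-treated for 24 h at 37 °C with 10 ng/mL TGF-β and 10 μM compound in serum-free DMEM.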

[2] = tested on: MDA-MB-231 (breast cancer); test: Antiproliferative activity, CCK-8 cell viability; details: Homo sapiens, 72 h, read-out: Inhibition of Cancerous Cells, MDA-MB-231; for inhibition at 3.3 µM: compound concentration of 3.3 μM; for inhibition at 10 µM: compound concentration of 10 μM; for inhibition at 30 µM: compound concentration of 30 μM
How it was run: (§1)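 Viability relative to DMSO controls came from CCK-8 absorbance at 450 nm after 72 h exposure at 37°C. Compound concentrations were 3.3, 10 or 30 μM, in DMEM plus 10% FBS. Results are categorised by inhibition level: at least 50%, 30 to under 50%, or under 30%.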

[3] = tested on: A549 (lung adenocarcinoma); test: Antiproliferative activity, CCK-8 cell viability; details: Homo sapiens, 72 h, read-out: Inhibition of Cancerous Cells, A549; for inhibition at 3.3 µM: compound concentration of 3.3 μM; for inhibition at 10 µM: compound concentration of 10 μM; for inhibition at 30 µM: compound concentration of 30 μM
HepG2 (liver cancer) = test: Antiproliferative activity, CCK-8 cell viability; details: Homo sapiens, 72 h, read-out: Inhibition of Cancerous Cells, HepG2; for inhibition at 3.3 µM: compound concentration of 3.3 μM; for inhibition at 10 µM: compound concentration of 10 μM; for inhibition at 30 µM: compound concentration of 30 μM
How it was run: as §1

[4] = tested on: B16F10 (malignant melanoma); test: Antiproliferative activity, CCK-8 cell viability; details: Mus musculus, B16-F10, 72 h, read-out: Inhibition of Cancerous Cells, B16F10; for inhibition at 3.3 µM: compound concentration of 3.3 μM; for inhibition at 10 µM: compound concentration of 10 μM; for inhibition at 30 µM: compound concentration of 30 μM
How it was run: as §1

SW480 (colon cancer) = test: Antiproliferative activity, CCK-8 cell viability; details: Homo sapiens, 72 h, read-out: Inhibition of Cancerous Cells, SW480; for inhibition at 3.3 µM: compound concentration of 3.3 μM; for inhibition at 10 µM: compound concentration of 10 μM; for inhibition at 30 µM: compound concentration of 30 μM
How it was run: as §1

[5] = tested on: A431 (epidermoid carcinoma); test: Antiproliferative activity, CCK-8 cell viability; details: Homo sapiens, A-431, 72 h, read-out: Inhibition of Cancerous Cells, A431; for inhibition at 3.3 µM: compound concentration of 3.3 μM; for inhibition at 10 µM: compound concentration of 10 μM; for inhibition at 30 µM: compound concentration of 30 μM
How it was run: as §1

HeLa (cervical cancer) = test: Antiproliferative activity, CCK-8 cell viability; details: Homo sapiens, 72 h, read-out: Inhibition of Cancerous Cells, HELA; for inhibition at 3.3 µM: compound concentration of 3.3 μM; for inhibition at 10 µM: compound concentration of 10 μM; for inhibition at 30 µM: compound concentration of 30 μM

| Structure (SMILES) | inhibition at 10 µM [1] | inhibition at 3.3 µM [2] | inhibition at 10 µM [2] | inhibition at 30 µM [2] | inhibition at 3.3 µM [3] | inhibition at 10 µM [3] | inhibition at 30 µM [3] | inhibition at 3.3 µM (HepG2 (liver cancer)) | inhibition at 10 µM (HepG2 (liver cancer)) | inhibition at 30 µM (HepG2 (liver cancer)) | inhibition at 3.3 µM [4] | inhibition at 10 µM [4] | inhibition at 30 µM [4] | inhibition at 3.3 µM (SW480 (colon cancer)) | inhibition at 10 µM (SW480 (colon cancer)) | inhibition at 30 µM (SW480 (colon cancer)) | inhibition at 3.3 µM [5] | inhibition at 10 µM [5] | inhibition at 30 µM [5] | inhibition at 3.3 µM (HeLa (cervical cancer)) | also measured |
| --- | --- | --- | --- | --- | --- | --- | --- | --- | --- | --- | --- | --- | --- | --- | --- | --- | --- | --- | --- | --- | --- |
| CC1=C(CC(=O)O)c2cc(F)ccc2/C1=C\c1cccc(COc2ccc(F)cc2F)c1 [Compound A19, 2-[(1Z)-1-({3-[(2,4-Difluorophenoxy)methyl]phenyl}methylidene)-5-fluoro-2-methyl-1H-inden-3-yl]acetic acid] | ≥ 80% | ≥ 50% | ≥ 50% | ≥ 50% | < 30% | 30 to 50% | ≥ 50% | 30 to 50% | ≥ 50% | ≥ 50% | ≥ 50% | ≥ 50% | ≥ 50% | ≥ 50% | ≥ 50% | ≥ 50% | ≥ 50% | ≥ 50% | ≥ 50% | 30 to 50% | inhibition at 10 µM (HeLa (cervical cancer)): ≥ 50%; inhibition at 30 µM (HeLa (cervical cancer)): ≥ 50% |
| CC1=C(CC(=O)O)c2cc(F)ccc2/C1=C\c1cccc(COc2ccc(F)c(F)c2)c1 [Compound A20, 2-[(1Z)-1-({3-[(3,4-Difluorophenoxy)methyl]phenyl}methylidene)-5-fluoro-2-methyl-1H-inden-3-yl]acetic acid] | ≥ 80% | ≥ 50% | ≥ 50% | ≥ 50% | < 30% | 30 to 50% | ≥ 50% | ≥ 50% | ≥ 50% | ≥ 50% | 30 to 50% | 30 to 50% | ≥ 50% | < 30% | 30 to 50% | ≥ 50% | ≥ 50% | ≥ 50% | ≥ 50% | 30 to 50% | inhibition at 10 µM (HeLa (cervical cancer)): 30 to 50%; inhibition at 30 µM (HeLa (cervical cancer)): ≥ 50% |
| CC1=C(CC(=O)O)c2cc(F)ccc2/C1=C\c1cccc(COc2ccc(C(F)(F)F)cc2)c1 [Compound A21, 2-[(1Z)-5-Fluoro-2-methyl-1-[(3-{[4-(trifluoromethyl)phenoxy]methyl}phenyl)-methylidene]-1H-inden-3-yl]acetic acid] | < 30% | ≥ 50% | ≥ 50% | ≥ 50% | 30 to 50% | 30 to 50% | ≥ 50% | 30 to 50% | 30 to 50% | ≥ 50% | ≥ 50% | ≥ 50% | ≥ 50% | ≥ 50% | ≥ 50% | ≥ 50% | 30 to 50% | ≥ 50% | ≥ 50% | 30 to 50% | inhibition at 10 µM (HeLa (cervical cancer)): 30 to 50%; inhibition at 30 µM (HeLa (cervical cancer)): ≥ 50% |
| CC1=C(CC(=O)O)c2cc(F)ccc2/C1=C\c1cccc(COc2ccc(C(C)(C)C)cc2)c1 [Compound A22, 2-[(1Z)-1-({3-[(4-Tert-butylphenoxy)methyl]phenyl}methylidene)-5-fluoro-2-methyl-1H-inden-3-yl]acetic acid] | ≥ 80% | ≥ 50% | ≥ 50% | ≥ 50% | < 30% | 30 to 50% | ≥ 50% | 30 to 50% | ≥ 50% | ≥ 50% | ≥ 50% | ≥ 50% | ≥ 50% | 30 to 50% | ≥ 50% | ≥ 50% | ≥ 50% | ≥ 50% | ≥ 50% | < 30% | inhibition at 10 µM (HeLa (cervical cancer)): < 30%; inhibition at 30 µM (HeLa (cervical cancer)): ≥ 50% |
| CC1=C(CC(=O)N(C)O)c2cc(F)ccc2/C1=C\c1ccc(Oc2ccccc2)cc1 [Compound B1, 2-[(1Z)-5-Fluoro-2-methyl-1-[(4-phenoxyphenyl)methylidene]-1H-inden-3-yl]-N-hydroxy-N-methylacetamide] | 50 to 80% | ≥ 50% | ≥ 50% | ≥ 50% | ≥ 50% | ≥ 50% | ≥ 50% | < 30% | 30 to 50% | ≥ 50% | ≥ 50% | ≥ 50% | ≥ 50% | ≥ 50% | ≥ 50% | ≥ 50% | ≥ 50% | ≥ 50% | ≥ 50% | 30 to 50% | inhibition at 10 µM (HeLa (cervical cancer)): ≥ 50%; inhibition at 30 µM (HeLa (cervical cancer)): ≥ 50% |
| CC1=C(CC(=O)N(C)O)c2cc(F)ccc2/C1=C\c1ccc(Oc2ccc(F)cc2)cc1 [Compound B2, 2-[(1Z)-5-Fluoro-1-{[4-(4-fluorophenoxy)phenyl]methylidene}-2-methyl-1H-inden-3-yl]-N-hydroxy-N-methylacetamide] | ≥ 80% | ≥ 50% | ≥ 50% | ≥ 50% | ≥ 50% | ≥ 50% | ≥ 50% | < 30% | 30 to 50% | ≥ 50% | ≥ 50% | ≥ 50% | ≥ 50% | ≥ 50% | ≥ 50% | ≥ 50% | ≥ 50% | ≥ 50% | ≥ 50% | 30 to 50% | inhibition at 10 µM (HeLa (cervical cancer)): 30 to 50%; inhibition at 30 µM (HeLa (cervical cancer)): ≥ 50% |
| CC1=C(CC(=O)N(C)O)c2cc(F)ccc2/C1=C\c1cccc(Oc2ccccc2)c1 [Compound B5, (Z)-2-(5-Fluoro-2-methyl-1-(3-phenoxybenzylidene)-1H-inden-3-yl)-N-hydroxy-N-methylacetamide] | 50 to 80% | < 30% | ≥ 50% | ≥ 50% | 30 to 50% | ≥ 50% | ≥ 50% | ≥ 50% | ≥ 50% | ≥ 50% | 30 to 50% | ≥ 50% | ≥ 50% | 30 to 50% | ≥ 50% | ≥ 50% | ≥ 50% | ≥ 50% | ≥ 50% | < 30% | inhibition at 10 µM (HeLa (cervical cancer)): ≥ 50%; inhibition at 30 µM (HeLa (cervical cancer)): ≥ 50% |
